Active and inactive are the calls of the source. The rule behind the calls is not given here.
Tests used:
Format in all cases: functional, organism-based
[1] = system: Monkeypox virus; assay: Antiviral activity against Monkeypox virus 2003-USA-039 infected in african green monkey BSC-40 cells assessed as reduction in virus-induced cytopathic effect; details: 2003-USA-039, BSC-40
[2] = system: Variola virus; assay: Antiviral activity against Variola virus infected in african green monkey vero cells assessed as reduction in virus-induced cytopathic effect
[3] = system: Variola virus; assay: Antiviral activity against Variola virus BSH74-sol infected in african green monkey BSC-40 cells at 0.005 uM by IHC staining-based comet tail reduction assay

Structure (SMILES): O=C(NN1C(=O)[C@@H]2[C@@H]3C=C[C@@H]([C@H]4C[C@@H]34)[C@@H]2C1=O)c1ccc(C(F)(F)F)cc1 [TECOVIRIMAT]
- EC50 [1]: 36 nM
- Activity [2]: Active
- Activity [3]: inactive
